Patent US9994616B2, “c-Met protein agonist” (The University of Tokyo, priority 2013, dated 2018)
Where two headings read alike, the source gives them in different places. Where a SMILES comes first, the peptide text is derived from it. Bridges are numbered along the chain shown (N, C = ends). [ ]: non-standard residue; d: D form. NMeW = CN[C@@H](Cc1c[nH]c2ccccc12)C(=O)O; NMeF = CN[C@@H](Cc1ccccc1)C(=O)O; NMeT = CN[C@H](C(=O)O)[C@@H](C)O; NMeD = CN[C@@H](CC(=O)O)C(=O)O; NMeN = CN[C@@H](CC(N)=O)C(=O)O; NMeL = CN[C@@H](CC(C)C)C(=O)O

What was measured:
[1] = target: c-Met-Fc (Homo sapiens, UniProt P08581); assay: Binding ability by surface plasmon resonance (SPR, Biacore); details: for kon: read-out: ka
Sequence of c-Met-Fc (P08581 with tags, fused parts or gaps limits assumed): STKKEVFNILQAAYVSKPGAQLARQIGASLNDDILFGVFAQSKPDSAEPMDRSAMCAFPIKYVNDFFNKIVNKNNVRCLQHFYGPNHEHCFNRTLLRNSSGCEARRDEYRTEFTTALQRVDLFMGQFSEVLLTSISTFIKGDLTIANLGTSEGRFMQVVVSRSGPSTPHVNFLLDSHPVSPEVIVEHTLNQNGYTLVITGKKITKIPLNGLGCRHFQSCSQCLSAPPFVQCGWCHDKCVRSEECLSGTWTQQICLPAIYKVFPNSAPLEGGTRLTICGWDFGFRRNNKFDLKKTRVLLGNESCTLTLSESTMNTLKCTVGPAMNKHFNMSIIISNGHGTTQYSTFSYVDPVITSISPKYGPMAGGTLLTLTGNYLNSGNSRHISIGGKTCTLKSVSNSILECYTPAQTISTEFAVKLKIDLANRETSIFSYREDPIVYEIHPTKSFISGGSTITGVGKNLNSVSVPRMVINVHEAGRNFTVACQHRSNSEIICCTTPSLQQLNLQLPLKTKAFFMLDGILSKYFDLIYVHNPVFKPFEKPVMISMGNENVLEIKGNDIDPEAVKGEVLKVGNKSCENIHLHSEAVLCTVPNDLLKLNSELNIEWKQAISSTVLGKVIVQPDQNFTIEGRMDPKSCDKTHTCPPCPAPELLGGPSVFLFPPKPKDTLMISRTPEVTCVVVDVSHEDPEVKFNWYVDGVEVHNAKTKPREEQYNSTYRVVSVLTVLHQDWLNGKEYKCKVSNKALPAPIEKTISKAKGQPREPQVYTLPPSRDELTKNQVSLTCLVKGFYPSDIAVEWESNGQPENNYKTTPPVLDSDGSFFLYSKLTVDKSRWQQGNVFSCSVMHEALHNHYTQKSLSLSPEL
Sequence of c-Met-Fc (P08581 25-307 limits assumed): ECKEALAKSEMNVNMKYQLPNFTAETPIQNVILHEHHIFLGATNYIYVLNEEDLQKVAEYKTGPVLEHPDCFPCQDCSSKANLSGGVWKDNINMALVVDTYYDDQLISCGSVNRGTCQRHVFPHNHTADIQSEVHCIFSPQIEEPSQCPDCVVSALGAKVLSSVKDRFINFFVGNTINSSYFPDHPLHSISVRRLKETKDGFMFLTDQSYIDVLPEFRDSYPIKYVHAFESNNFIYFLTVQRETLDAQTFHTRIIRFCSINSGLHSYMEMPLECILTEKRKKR
Procedure: Binding ability of the thioether macrocyclic peptide was evaluated by SPR measurement using Biacore (GE Healthcare).
As a sensor chip, Sensor Chip CM5 was used and an anti-IgG antibody was immobilized on a measurement lane and a control lane by using Human Antibody Capture Kit.
On the measurement lane was immobilized c-Met-Fc, while on the control lane was immobilized Fc protein.
As a running buffer, HBS-EP+ buffer containing 0.1% DMSO was used and a dissociation constant of the thioether macrocyclic peptide was calculated at 5 different concentrations by using the single-kinetics method.

[2] = Stability of thioether macrocyclic peptide in human serum pool (LC-MS); assay type: in vitro ADME; details: for remaining at 1 h, 1 μM: Table 8
Procedure: A DMSO solution of the thioether macrocyclic peptide to be evaluated was dissolved in a human serum pool to give a concentration of 1 μM. The human serum pool containing the thioether macrocyclic peptide thus prepared was incubated at 37° C.
After an elapse of the evaluation time, the human serum pool containing the thioether macrocyclic peptide was placed on ice and a peptide serving as an internal standard was added and mixed to give a concentration of 1 μM. The resulting mixture was added to a solid-phase extraction column (Hyper Sep SPE column, Thermo Scientific), washed with a 5% aqueous acetonitrile solution containing 0.1% TFA, and then purified by eluting with a 70% aqueous acetonitrile solution containing 0.1% TFA.
The molecular weight of the purified product was analyzed using LC-MS and the cleavage site in the serum was identified. In addition, the thioether macrocyclic peptide which had remained without being cleaved was quantitatively determined by comparing an amount relative to the internal standard at every incubation time.

| Compound | kon ([1]; Table 8, c-Met-Fc) [M⁻¹ s⁻¹] | remaining at 1 h, 1 μM ([2]; human serum pool, 37° C., 1 μM) [%] | kd ([1]; Table 8, c-Met-Fc) | other results |
| --- | --- | --- | --- | --- |
| N14: N-methylated peptide of D4-3 ({CH2CO}-[dY]RQFNRRTHEVWN[NMeL]DC-NH2; thioether N-16; also: bridge 1-16 listed as disulfide) [Peptide N14] |  |  | 0.59 10^−2 s^−1 | Kd ([1]; Table 8, c-Met-Fc): 290 nM; ka ([1]; Table 8, c-Met-Fc): 0.21 10^5 M^−1s^−1 |
| CC(C)C[C@@H]1NC(=O)[C@H](CC(N)=O)NC(=O)[C@H](Cc2c[nH]c3ccccc23)NC(=O)[C@H](C(C)C)NC(=O)[C@H](CCC(=O)O)NC(=O)[C@H](Cc2c[nH]cn2)NC(=O)[C@H]([C@@H](C)O)NC(=O)[C@H](CCCNC(=N)N)NC(=O)[C@H](CCCNC(=N)N)NC(=O)[C@H](CC(N)=O)NC(=O)[C@H](Cc2ccccc2)N(C)C(=O)[C@H](CCC(N)=O)NC(=O)[C@H](CCCNC(=N)N)NC(=O)[C@@H](Cc2ccc(O)cc2)NC(=O)CSC[C@@H](C(=O)NCC(N)=O)NC(=O)[C@H](CC(=O)O)NC1=O [Peptide N4] ({CH2CO}-[dY]RQ[NMeF]NRRTHEVWNLDCG-NH2; thioether N-16; C-terminus assumed) | 120000 | 21.1 | 0.96 10^−2 s^−1 |  |
| N5: N-methylated peptide of D4-3 ({CH2CO}-[dY]RQF[NMeN]RRTHEVWNLDC-NH2; thioether N-16; also: bridge 1-16 listed as disulfide) [Peptide N5] |  |  | 0.39 10^−2 s^−1 | Kd ([1]; Table 8, c-Met-Fc): 200 nM; ka ([1]; Table 8, c-Met-Fc): 0.19 10^5 M^−1s^−1 |
| CC(C)C[C@@H]1NC(=O)[C@H](CC(N)=O)NC(=O)[C@H](Cc2c[nH]c3ccccc23)NC(=O)[C@H](C(C)C)NC(=O)[C@H](CCC(=O)O)NC(=O)[C@H](Cc2c[nH]cn2)NC(=O)[C@H]([C@@H](C)O)NC(=O)[C@H](CCCNC(=N)N)NC(=O)[C@H](CCCNC(=N)N)NC(=O)[C@H](CC(N)=O)NC(=O)[C@H](Cc2ccccc2)NC(=O)[C@H](CCC(N)=O)NC(=O)[C@H](CCCNC(=N)N)NC(=O)[C@@H](Cc2ccc(O)cc2)NC(=O)CSC[C@@H](C(=O)NCC(N)=O)NC(=O)[C@H](CC(=O)O)NC1=O [Peptide D4-3] ({CH2CO}-[dY]RQFNRRTHEVWNLDCG-NH2; thioether N-16; N-terminus and C-terminus assumed) | 1.3e+06 | 3.7 |  | kon ([1]; Table 10, c-Met-Fc): 2.4e+06 M⁻¹ s⁻¹; remaining at 4 h, 1 μM ([2]; Table 9, human serum pool, 37° C., 1 μM, 4 h): < 3.7%; Stability in human serum (undegraded portion/time) ([2]; Table 10, 2 h, 37° C.): 6%/2 h |

Second part, led by results:

| kon ([1]; Table 8, c-Met-Fc) [M⁻¹ s⁻¹] | remaining at 1 h, 1 μM ([2]; human serum pool, 37° C., 1 μM) [%] | Compound | kd ([1]; Table 8, c-Met-Fc) | other results |
| --- | --- | --- | --- | --- |
| 55000 |  | CC(C)C[C@@H]1NC(=O)[C@H](CC(N)=O)NC(=O)[C@H](Cc2c[nH]c3ccccc23)N(C)C(=O)[C@H](C(C)C)NC(=O)[C@H](CCC(=O)O)NC(=O)[C@H](Cc2c[nH]cn2)NC(=O)[C@H]([C@@H](C)O)NC(=O)[C@H](CCCNC(=N)N)NC(=O)[C@H](CCCNC(=N)N)NC(=O)[C@H](CC(N)=O)NC(=O)[C@H](Cc2ccccc2)NC(=O)[C@H](CCC(N)=O)NC(=O)[C@H](CCCNC(=N)N)NC(=O)[C@@H](Cc2ccc(O)cc2)NC(=O)CSC[C@@H](C(=O)NCC(N)=O)NC(=O)[C@H](CC(=O)O)NC1=O [Peptide N12] ({CH2CO}-[dY]RQFNRRTHEV[NMeW]NLDCG-NH2; thioether N-16; C-terminus assumed) |  |  |
| 300000 |  | CC(C)C[C@@H]1NC(=O)[C@H](CC(N)=O)NC(=O)[C@H](Cc2c[nH]c3ccccc23)NC(=O)[C@H](C(C)C)NC(=O)[C@H](CCC(=O)O)NC(=O)[C@H](Cc2c[nH]cn2)NC(=O)[C@H]([C@@H](C)O)NC(=O)[C@H](CCCNC(=N)N)NC(=O)[C@H](CCCNC(=N)N)NC(=O)[C@H](CC(N)=O)NC(=O)[C@H](Cc2ccccc2)NC(=O)[C@H](CCC(N)=O)NC(=O)[C@H](CCCNC(=N)N)NC(=O)[C@@H](Cc2ccc(O)cc2)NC(=O)CSC[C@@H](C(=O)NCC(N)=O)NC(=O)[C@H](CC(=O)O)N(C)C1=O [Peptide N15] ({CH2CO}-[dY]RQFNRRTHEVWNL[NMeD]CG-NH2; thioether N-16; C-terminus assumed) |  |  |
| 27000 | 81 | CC(C)C[C@@H]1NC(=O)[C@H](CC(N)=O)NC(=O)[C@H](Cc2c[nH]c3ccccc23)NC(=O)[C@H](C(C)C)NC(=O)[C@H](CCC(=O)O)NC(=O)[C@H](Cc2c[nH]cn2)NC(=O)[C@H]([C@@H](C)O)N(C)C(=O)[C@H](CCCNC(=N)N)NC(=O)[C@H](CCCNC(=N)N)NC(=O)[C@H](CC(N)=O)NC(=O)[C@H](Cc2ccccc2)NC(=O)[C@H](CCC(N)=O)NC(=O)[C@H](CCCNC(=N)N)NC(=O)[C@@H](Cc2ccc(O)cc2)NC(=O)CSC[C@@H](C(=O)NCC(N)=O)NC(=O)[C@H](CC(=O)O)NC1=O [Peptide N8] ({CH2CO}-[dY]RQFNRR[NMeT]HEVWNLDCG-NH2; thioether N-16; C-terminus assumed) |  | Stability in serum (in words) ([2]; human serum): drastically improved |
